Measurements as given in patent US4839386A, “Ionic bis (Dicarboxylato) palladate (II)” (Engelhard Corporation, priority 1987, dated 1989).
Where “and” joins values, the source holds several entries; their conditions need not be identical. Equal values may be shown once. Read-outs that look alike come from different tables or passages of the source.

How the values were obtained:
[1] = test system: S 180 Ascites; experiment: effective dose (ED90) and therapeutic index, S 180 ascites, method of Miller and Taiter; assay type: in vivo, mice; set-up: ED90: unit not given here; settings: for Therapeutic Index: LD50/ED90; for ED90: dose which causes a 50% increase in life span in 90% of the test animals, determined graphically
Method: The effective dose (ED90), lethal dose (LD50) and therapeutic index (TI) were determined via the method of Miller and Taiter (Reported by R. A. Turner, "Screening Methods in Pharmacology", Academic Press, New York, pages 61-62 (1965)).
In this study Ed90 represents the dose which causes a 50% increase in life span (ILS) in 90% of the test animals (mice) determined graphically. The LD50 value represents the lethal dose to 50% of said animals (Therapeutic Index=LD50 /Ed90).

[2] = test system: S180 ascites; experiment: Anti-Tumor Screening; S180 ascites in mice (% increase in life span, survivors); assay type: in vivo, female CFW Swiss mice; settings: for Best % ILS (Dosage): Table 4
Method: The compounds used in this invention were evaluated against S180 ascites in female CFW Swiss mice. The mice were weighed (average weight: 20 g), placed into cages (six mice to a cage) and on day zero the mice were inoculated with 0.2 ml of a freshly prepared saline suspension (0.15M NaC1) containing 1×10^7 tumor cells/ml or a total of 2×10^6 cells. This inoculum was freshly prepared using "transfer" mice which had been injected with tumor cells the previous week; it was obtained via the following steps (1) the removal of cells from the peritoneal cavity of the sacrificed transfer mouse, (2) alternate centrifugation and washing operations (2-3 times with cold saline) to remove blood and other components, and (3) dilution of the volume of the packed cell with saline (1:3). A final centrifugation was carried out at 1000 RPM over a two minute period. A cell count was made on a 2000-fold dilution of this 1:3 suspension by means of a Coulter Counter. A final dilution to 1×10^7 cells/ml was made based on the average count.
On day 1, solutions of the test compounds were prepared and each mouse in a set of six was injected with the same test compound at the same dosage. The doses were based on the average weight of the animals (cage weight). Also, beginning on day 1 two controls were employed containing six mice per control:
(1) Normal Control: This consisted solely of the carrier or diluent used in combination with the test compound; and
(2) Positive Control: This consisted solely of the known anti-tumor agent cis-[Pt(NH3)2 C12 ] in saline (8 mg/kg) to test the response of the biological system.
The effectiveness of a test compound was measured in terms of the % increase in life span (% ILS) of the test mice relative to the Normal Control (Calculated from the day of tumor inoculation, i.e., day zero). To standardize the test data and permit intercomparisons, the day of evaluation was arbitrarily taken as that day corresponding to twice the mean life span (or average day of death) of the control. This established a practical upper limit of 100% on the % ILS attainable. For calculation purposes the survivors on the day of evaluation were considered to have died on that day. The % ILS was calculated as follows:
% ILS=mean-life span of test mice/mean-life span of control
ILS values in excess of 50% were interpreted as being indicative of anti-tumor cell activity in animals whereas, values in excess of 75% indicated excellent activity.
The test compounds were evaluated in water.

[3] = test system: testicular and ovarian tumors; settings: background; cited from earlier work
[4] = solubility in water at room temperature

O=C([O-])C(O)C(=O)[O-].O=C([O-])C(O)C(=O)[O-].[K+].[K+].[Pd+2] [Example 4, Potassium Bis(Tartronato)palladate(II)]
Therapeutic Index [1]: 2.1
ED90 [1]: 190
% ILS ([2]; 12.5 mg/kg): 1%
Survivors ([2]; 12.5 mg/kg): 0 of 6
% ILS ([2]; 25 mg/kg): 12%
Survivors ([2]; 25 mg/kg): 0 of 6
% ILS ([2]; 50 mg/kg): 11%
Survivors ([2]; 50 mg/kg): 0 of 6
% ILS ([2]; 100 mg/kg): 68%
Survivors ([2]; 100 mg/kg): 3 of 6
% ILS ([2]; 200 mg/kg): 76%
Survivors ([2]; 200 mg/kg): 0 of 6
Best % ILS (Dosage) ([2]; 200 mg/kg): 76%
% ILS ([2]; 400 mg/kg): 14%
Survivors ([2]; 400 mg/kg): 3 of 6
solubility in water: 2 mg/mL

O=C([O-])CC(=O)[O-].O=C([O-])CC(=O)[O-].[K+].[K+].[Pd+2] [K2 [Pd(Malonate)2]]
ED90 [1]: 120
% ILS ([2]; 10 mg/kg): 6% and 8%
Survivors ([2]; 10 mg/kg): 0 of 6
% ILS ([2]; 20 mg/kg): -1% and 8%
Survivors ([2]; 20 mg/kg): 0 of 6
% ILS ([2]; 40 mg/kg): -12%
Survivors ([2]; 40 mg/kg): 0 of 6
% ILS ([2]; 80 mg/kg): 69% and 66%
Survivors ([2]; 80 mg/kg): 3 of 6 and 2 of 6
% ILS ([2]; 160 mg/kg): 82% and 86%
Survivors ([2]; 160 mg/kg): 2 of 6 and 3 of 6
Best % ILS (Dosage) ([2]; 160 mg/kg): 82% and 86%
% ILS ([2]; 320 mg/kg): -74%
Survivors ([2]; 320 mg/kg): 0 of 6

CC(C)(C(=O)[O-])C(=O)[O-].CC(C)(C(=O)[O-])C(=O)[O-].[K+].[K+].[Pd+2] [Example 7, Potasium Bis(Dimethylmalonato)palladate(II)]
ED90 [1]: 210
% ILS ([2]; 10 mg/kg): -15%
Survivors ([2]; 10 mg/kg): 0 of 6
% ILS ([2]; 20 mg/kg): 0%
Survivors ([2]; 20 mg/kg): 0 of 6
% ILS ([2]; 40 mg/kg): -8%
Survivors ([2]; 40 mg/kg): 0 of 6
% ILS ([2]; 80 mg/kg): -11%
Survivors ([2]; 80 mg/kg): 0 of 6
% ILS ([2]; 160 mg/kg): 61%
Survivors ([2]; 160 mg/kg): 1 of 6
Best % ILS (Dosage) ([2]; 160 mg/kg): 61%
% ILS ([2]; 320 mg/kg): 26%
Survivors ([2]; 320 mg/kg): 0 of 6

cis-[Pt(NH3)2 -Cl2 ] [Positive Control, reference compound]
Positive Control Survivors ([2]; 8 mg/kg in saline): 0 of 6 and 1 of 6 and 2 of 6 and 4 of 6
regression of testicular and ovarian tumors (in words) [3]: singularly successful in bringing about a regression of testicular and ovarian tumors

O=C([O-])C(=O)[O-].O=C([O-])C(=O)[O-].[K+].[K+].[Pd+2] [K2 [Pd(Oxalate)2], reference compound]
% ILS ([2]; 12.5 mg/kg): 2%
Survivors ([2]; 12.5 mg/kg): 0 of 6
% ILS ([2]; 25 mg/kg): 33%
Survivors ([2]; 25 mg/kg): 0 of 6
% ILS ([2]; 50 mg/kg): -7%
Survivors ([2]; 50 mg/kg): 0 of 6
% ILS ([2]; 100 mg/kg): -9%
Survivors ([2]; 100 mg/kg): 1 of 6
% ILS ([2]; 200 mg/kg): -71%
Survivors ([2]; 200 mg/kg): 0 of 6

O=C([O-])C1(C(=O)[O-])CCC1.O=C([O-])C1(C(=O)[O-])CCC1.[K+].[K+].[Pd+2] [Example 6, Potassium Bis(Cyclobutanedicarboxylato)palladate(II)]
Therapeutic Index [1]: 1.1
ED90 [1]: 210
% ILS ([2]; 10 mg/kg): -4%
Survivors ([2]; 10 mg/kg): 0 of 6
% ILS ([2]; 20 mg/kg): 9%
Survivors ([2]; 20 mg/kg): 0 of 6
% ILS ([2]; 40 mg/kg): 7%
Survivors ([2]; 40 mg/kg): 0 of 6
% ILS ([2]; 80 mg/kg): -7%
Survivors ([2]; 80 mg/kg): 0 of 6
% ILS ([2]; 160 mg/kg): 50%
Survivors ([2]; 160 mg/kg): 0 of 6
Best % ILS (Dosage) ([2]; 160 mg/kg): 50%
% ILS ([2]; 320 mg/kg): -75%
Survivors ([2]; 320 mg/kg): 0 of 6
solubility in water: 200 mg/mL

O=C([O-])C(=O)C(=O)[O-].O=C([O-])C(=O)C(=O)[O-].[K+].[K+].[Pd+2] [Example 2, Potassium Bis(Ketomalonato)palladate(II)]
Therapeutic Index [1]: 2.0
ED90 [1]: 200
% ILS ([2]; 10 mg/kg): 4%
Survivors ([2]; 10 mg/kg): 0 of 6
% ILS ([2]; 20 mg/kg): 4%
Survivors ([2]; 20 mg/kg): 0 of 6
% ILS ([2]; 40 mg/kg): 4%
Survivors ([2]; 40 mg/kg): 0 of 6
% ILS ([2]; 80 mg/kg): 13%
Survivors ([2]; 80 mg/kg): 1 of 6
% ILS ([2]; 160 mg/kg): 81%
Survivors ([2]; 160 mg/kg): 5 of 6
Best % ILS (Dosage) ([2]; 160 mg/kg): 81%
% ILS ([2]; 320 mg/kg): 17%
Survivors ([2]; 320 mg/kg): 0 of 6
solubility in water: 6.7 mg/mL

O=C([O-])c1ccccc1C(=O)[O-].O=C([O-])c1ccccc1C(=O)[O-].[K+].[K+].[Pd+2] [Example 5, Potassium Bis(phthalato)palladate(II)]
solubility in water [4]: 80 mg/mL
Therapeutic Index [1]: 2.3
ED90 [1]: 220
% ILS ([2]; 50 mg/kg): 18%
Survivors ([2]; 50 mg/kg): 0 of 6
% ILS ([2]; 100 mg/kg): 38%
Survivors ([2]; 100 mg/kg): 1 of 6
% ILS ([2]; 200 mg/kg): 79%
Survivors ([2]; 200 mg/kg): 2 of 6
Best % ILS (Dosage) ([2]; 200 mg/kg): 79%
% ILS ([2]; 400 mg/kg): 25%
Survivors ([2]; 400 mg/kg): 0 of 6

CCC(C(=O)[O-])C(=O)[O-].CCC(C(=O)[O-])C(=O)[O-].[K+].[K+].[Pd+2] [Example 1, Potassium Bis(Ethylmalonato)palladate(II)]
solubility in water [4]: 70 mg/mL
Therapeutic Index [1]: 2.1
ED90 [1]: 150
% ILS ([2]; 5 mg/kg): 6%
Survivors ([2]; 5 mg/kg): 0 of 6
% ILS ([2]; 10 mg/kg): -3%
Survivors ([2]; 10 mg/kg): 0 of 6
Survivors ([2]; 20 mg/kg): 0 of 6
Survivors ([2]; 40 mg/kg): 0 of 6
Survivors ([2]; 80 mg/kg): 0 of 6
Best % ILS (Dosage) ([2]; 160 mg/kg): 94%
% ILS ([2]; 160 mg/kg, listed as Ex. 1): 94% and 55%
Survivors ([2]; 160 mg/kg, listed as Ex. 1): 5 of 6 and 1 of 6
Survivors ([2]; 320 mg/kg, listed as Ex. 1): 0 of 6 and 1 of 6

CC(C(=O)[O-])C(=O)[O-].CC(C(=O)[O-])C(=O)[O-].[K+].[K+].[Pd+2] [Example 3, Potassium Bis(Methylmalonato)palladate(II)]
solubility in water [4]: 21 mg/mL
Therapeutic Index [1]: 1.1
ED90 [1]: 160
% ILS ([2]; 6.25 mg/kg): 11%
Survivors ([2]; 6.25 mg/kg): 0 of 6
% ILS ([2]; 12.5 mg/kg): 2%
Survivors ([2]; 12.5 mg/kg): 0 of 6
% ILS ([2]; 25 mg/kg): -6%
Survivors ([2]; 25 mg/kg): 0 of 6
% ILS ([2]; 50 mg/kg): 2%
Survivors ([2]; 50 mg/kg): 0 of 6
% ILS ([2]; 100 mg/kg): 54%
Survivors ([2]; 100 mg/kg): 2 of 6
Best % ILS (Dosage) ([2]; 100 mg/kg): 54%
% ILS ([2]; 200 mg/kg): 54%
Survivors ([2]; 200 mg/kg): 0 of 6
% ILS ([2]; 400 mg/kg): -83%
Survivors ([2]; 400 mg/kg): 0 of 6
